Reference: patent publication US20260317320A1, “C5AR1 ANTAGONISTS AND USES THEREOF” (Vanqua Bio, Inc., priority 2022, published 2026)
Like-named read-outs stand apart in the source and are kept apart here.

What was measured:
[1] = molecular target: T1, complement C5a receptor 1 (C5aR1) (Homo sapiens, UniProt P21730); assay: β-arrestin recruitment via C5aR1 activation in live CHO-K1 cells (PathHunter), agonist mode; assay type: cell-based
T1 construct: β-galactosidase fragment (PathHunter enzyme complementation); host or cells: CHO-K1 (PathHunter CHO-K1 C5aR1 β-arrestin cell line)
T1 sequence (P21730 1-350): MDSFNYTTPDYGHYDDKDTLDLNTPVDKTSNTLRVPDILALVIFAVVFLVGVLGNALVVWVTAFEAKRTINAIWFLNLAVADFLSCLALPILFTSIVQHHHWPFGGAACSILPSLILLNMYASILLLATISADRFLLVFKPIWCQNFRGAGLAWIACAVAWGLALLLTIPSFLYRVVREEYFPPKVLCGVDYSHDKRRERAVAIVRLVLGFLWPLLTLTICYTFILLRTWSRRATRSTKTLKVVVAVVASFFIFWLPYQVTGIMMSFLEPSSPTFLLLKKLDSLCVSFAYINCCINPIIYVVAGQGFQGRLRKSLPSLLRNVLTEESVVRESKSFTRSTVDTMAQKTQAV
Method: (§1) Exemplary compounds were evaluated for classical GPCR β-arrestin recruitment via complement C5a receptor 1 (C5aR1) activation in live CHO-K1 cells. This cell line expresses two fragments of the […] protein coupled to β-arrestin and C5aR1. Complementation of the two fragments allows for the assessment of both C5aR1 agonism and antagonism. Recombinant hC5a (EC90) was used as the competing natural agonist against disclosed compounds (more information on the expanded protocol and cell line can be found on the manufacturer's website: PathHunter® CHO-K1 C5aR1 β-arrestin cell line, DiscoverX, Catalog No. 93-0557C2). […] IC50 ranges: A: IC50≤500 nM; B: 500 nM<IC50≤5 uM; C: 5 uM<IC50≤100 uM; D: IC50>100 uM.

[2] = molecular target: T1, complement C5a receptor 1 (C5aR1); assay: β-arrestin recruitment via C5aR1 activation in live CHO-K1 cells (PathHunter), antagonist mode; assay type: cell-based; conditions: antagonist mode; recombinant hC5a (EC90) as competing natural agonist; live CHO-K1 cells; read-out: [Antagonist] B-arrestin2 recruitment: Average IC50
Method: as §1

Row | [Agonist] B-arrestin2 recruitment: Average EC50 (nM) [1] | IC50 [2] | [Agonist] B-arrestin2 recruitment: Average EC50 (nM) ([1]; at 10 μM) | Structure (SMILES)
1 | Non-Active | 5 to 100 µM |  | Cc1cccc(F)c1N1CCC(c2cc3nccnc3n([C@@H]3CCCc4cccnc43)c2=O)CC1 [40a, (R)-7-(1-(2-Fluoro-6-methylphenyl)piperidin-4-yl)-5-(5,6,7,8-tetrahydroquinolin-8-yl)pyrido[2,3-b]pyrazin-6(5H)-one]
2 | Non-Active | > 100 µM |  | Cc1cccc(F)c1N1CCC(c2cc3nccnc3n([C@H]3CCCc4cccnc43)c2=O)CC1 [40b, (S)-7-(1-(2-Fluoro-6-methylphenyl)piperidin-4-yl)-5-(5,6,7,8-tetrahydroquinolin-8-yl)pyrido[2,3-b]pyrazin-6(5H)-one]
3 | Non-Active | 0.5 to 5 µM |  | Cc1cccc(F)c1N1CCC(c2cc3nccnc3n([C@@H]3CCCc4nccnc43)c2=O)CC1 [43a, (R)-7-(1-(2-Fluoro-6-methylphenyl)piperidin-4-yl)-5-(5,6,7,8-tetrahydroquinoxalin-5-yl)pyrido[2,3-b]pyrazin-6(5H)-one]
4 | Non-Active | 0.5 to 5 µM |  | Cc1cccc(F)c1N1CCC(c2cc3nccnc3n([C@H]3CCCc4nccnc43)c2=O)CC1 [43b, (S)-7-(1-(2-Fluoro-6-methylphenyl)piperidin-4-yl)-5-(5,6,7,8-tetrahydroquinoxalin-5-yl)pyrido[2,3-b]pyrazin-6(5H)-one]
5 | Non-Active | 5 to 100 µM |  | Cc1cccc(F)c1N1CCC(c2cc3nccnc3n([C@@H]3CCCc4ncccc43)c2=O)CC1 [49a, (R)-7-(1-(2-Fluoro-6-methylphenyl)piperidin-4-yl)-5-(5,6,7,8-tetrahydroquinolin-5-yl)pyrido[2,3-b]pyrazin-6(5H)-one]
6 | Non-Active | 0.5 to 5 µM |  | Cc1cccc(F)c1N1CCC(c2cc3nccnc3n([C@H]3CCCc4ncccc43)c2=O)CC1 [49b, (S)-7-(1-(2-Fluoro-6-methylphenyl)piperidin-4-yl)-5-(5,6,7,8-tetrahydroquinolin-5-yl)pyrido[2,3-b]pyrazin-6(5H)-one]
7 | Non-Active | 5 to 100 µM |  | Cc1cccc(F)c1N1CCC(c2cc3nccnc3n([C@@H]3CCCc4ccccc43)c2=O)CC1 [53a, (R)-7-(1-(2-Fluoro-6-methylphenyl)piperidin-4-yl)-5-(1,2,3,4-tetrahydronaphthalen-1-yl)pyrido[2,3-b]pyrazin-6(5H)-one]
8 | Non-Active | 0.5 to 5 µM |  | Cc1cccc(F)c1N1CCC(c2cc3nccnc3n([C@H]3CCCc4ccccc43)c2=O)CC1 [53b, (S)-7-(1-(2-Fluoro-6-methylphenyl)piperidin-4-yl)-5-(1,2,3,4-tetrahydronaphthalen-1-yl)pyrido[2,3-b]pyrazin-6(5H)-one]
9 | Non-Active | 0.5 to 5 µM |  | Cc1cnc2cc(C3CCN(c4c(C)cccc4F)CC3)c(=O)n([C@H]3CCCc4nccnc43)c2n1 [61a, (S)-7-(1-(2-Fluoro-6-methylphenyl)piperidin-4-yl)-3-methyl-5-(5,6,7,8-tetrahydroquinoxalin-5-yl) pyrido[2,3-b]pyrazin-6(5H)-one]
10 | Non-Active | < 0.5 µM |  | Cc1cnc2cc(C3CCN(c4c(C)cccc4F)CC3)c(=O)n([C@@H]3CCCc4nccnc43)c2n1 [61b, (R)-7-(1-(2-fluoro-6-methylphenyl)piperidin-4-yl)-3-methyl-5-(5,6,7,8-tetrahydroquinoxalin-5-yl)pyrido[2,3-b]pyrazin-6(5H)-one]
11 |  | 5 to 100 µM | Non-Active at 10 μM | Cc1cnc2cc([C@H]3CC[C@@H](c4c(C)ccnc4F)CC3)c(=O)n(Cc3nccnc3C)c2n1 [135A, 7-((1s,4s)-4-(2-Fluoro-4-methylpyridin-3-yl)cyclohexyl)-3-methyl-5-((3-methylpyrazin-2-yl)methyl)pyrido[2,3-b]pyrazin-6(5H)-one]
12 |  | 5 to 100 µM | Non-Active at 10 μM | Cc1cnc2cc([C@H]3CC[C@H](c4c(C)ccnc4F)CC3)c(=O)n(Cc3nccnc3C)c2n1 [135B, 7-((1r,4r)-4-(2-Fluoro-4-methylpyridin-3-yl)cyclohexyl)-3-methyl-5-((3-methylpyrazin-2-yl)methyl)pyrido[2,3-b]pyrazin-6(5H)-one]
13 | Non-Active | 5 to 100 µM |  | Cc1cnc2cc([C@H]3CC[C@@H](c4c(C)cccc4F)CC3)c(=O)n(Cc3nccnc3C)c2n1 [137A, (S)-7-((1s,4s)-4-(2-Fluoro-6-methylphenyl)cyclohexyl)-3-methyl-5-((3-methylpyrazin-2-yl)methyl)pyrido[2,3-b]pyrazin-6(5H)-one]
14 |  | < 0.5 µM | Non-Active at 10 μM | Cc1cnc2cc([C@H]3CC[C@H](c4c(C)cccc4F)CC3)c(=O)n(Cc3nccnc3C)c2n1 [137B, (R)-7-((1r,4r)-4-(2-Fluoro-6-methylphenyl)cyclohexyl)-3-methyl-5-((3-methylpyrazin-2-yl)methyl)pyrido[2,3-b]pyrazin-6(5H)-one]
15 | Non-Active | > 100 µM |  | Cc1ccc2nc(C3CCN(c4c(C)cccc4F)CC3)c(=O)n(Cc3ncccc3C(F)(F)F)c2c1 [142A, 3-(1-(2-Fluoro-6-methylphenyl)piperidin-4-yl)-7-methyl-1-((3-(trifluoromethyl)pyridin-2-yl)methyl)quinoxalin-2(1H)-one]
16 | Non-Active | < 0.5 µM |  | Cc1cnc2cc([C@H]3CC[C@H](c4c(C)ccnc4F)CC3)c(=O)n(Cc3nccnc3C(F)(F)F)c2n1 [143A, 7-((1r,4r)-4-(2-Fluoro-4-methylpyridin-3-yl)cyclohexyl)-3-methyl-5-((3-(trifluoromethyl)pyrazin-2-yl)methyl)pyrido[2,3-b]pyrazin-6(5H)-one]
17 | Non-Active | 0.5 to 5 µM |  | Cc1cnc2cc([C@H]3CC[C@@H](c4c(C)ccnc4F)CC3)c(=O)n(Cc3nccnc3C(F)(F)F)c2n1 [143B, 7-((1s,4s)-4-(2-Fluoro-4-methylpyridin-3-yl)cyclohexyl)-3-methyl-5-((3-(trifluoromethyl)pyrazin-2-yl)methyl)pyrido[2,3-b]pyrazin-6(5H)-one]
18 |  | > 100 µM | Non-Active at 10 μM | Cc1ccc2nc(C3CCN(c4c(C)cccc4F)CC3)c(=O)n(Cc3nccnc3C(F)(F)F)c2c1 [144A, 3-(1-(2-Fluoro-6-methylphenyl)piperidin-4-yl)-7-methyl-1-((3-(trifluoromethyl)pyrazin-2-yl)methyl)quinoxalin-2(1H)-one]
19 |  | > 100 µM | Non-Active at 10 μM | Cc1ccc2c(c1)nc(C1CCN(c3c(C)cccc3F)CC1)c(=O)n2Cc1nccnc1C(F)(F)F [144B, 3-(1-(2-Fluoro-6-methylphenyl)piperidin-4-yl)-6-methyl-1-((3-(trifluoromethyl)pyrazin-2-yl)methyl)quinoxalin-2(1H)-one]
20 |  | 5 to 100 µM | Non-Active at 10 μM | Cc1cnc2cc([C@H]3CC[C@@H](c4c(C)ccnc4F)CC3)c(=O)n(Cc3nccnc3C(F)F)c2n1 [146A, 5-((3-(Difluoromethyl)pyrazin-2-yl)methyl)-7-((1s,4s)-4-(2-fluoro-4-methylpyridin-3-yl)cyclohexyl)-3-methylpyrido[2,3-b]pyrazin-6(5H)-one]
21 |  | 0.5 to 5 µM | Non-Active at 10 μM | Cc1cnc2cc([C@H]3CC[C@H](c4c(C)ccnc4F)CC3)c(=O)n(Cc3nccnc3C(F)F)c2n1 [146B, 5-((3-(Difluoromethyl)pyrazin-2-yl)methyl)-7-((1r,4r)-4-(2-fluoro-4-methylpyridin-3-yl)cyclohexyl)-3-methylpyrido[2,3-b]pyrazin-6(5H)-one]
22 |  |  | Non-Active at 10 μM | Cc1cnc2cc([C@H]3CC[C@H](c4c(C)ccc5c4cnn5C)CC3)c(=O)n(Cc3ncccc3C(F)(F)F)c2n1 [compound 218, 7-((1r,4r)-4-(1,5-Dimethyl-1H-indazol-4-yl)cyclohexyl)-3-methyl-5-((3-(trifluoromethyl)pyridin-2-yl)methyl)pyrido[2,3-b]pyrazin-6(5H)-one]
23 | Non-Active |  |  | Cc1ccc2cc([C@H]3CC[C@H](c4c(C)cccc4F)CC3)c(=O)n(Cc3nccnc3C(C)(F)F)c2n1 [compound 269, 1-{[3-(1,1-Difluoroethyl)-2-pyrazinyl]methyl}-7-methyl-3-[(1r,4r)-4-(2-fluoro-6-tolyl)cyclohexyl]-1,8-diaza-2(1H)-naphthalenone]
